Reference: ChEMBL document CHEMBL1795245, “Pyrazoline based MAO inhibitors: synthesis, biological evaluation and SAR studies” (Bioorg Med Chem Lett, 2011)

Experiments:
[1] = biological target: T1, Amine oxidase [flavin-containing] A (Homo sapiens, UniProt P21397); assay: Reversible inhibition of human MAO-A expressed in BTI insect cells using p-tyramine as substrate after 60 mins; settings: 1 h
T1 sequence (P21397 whole entry): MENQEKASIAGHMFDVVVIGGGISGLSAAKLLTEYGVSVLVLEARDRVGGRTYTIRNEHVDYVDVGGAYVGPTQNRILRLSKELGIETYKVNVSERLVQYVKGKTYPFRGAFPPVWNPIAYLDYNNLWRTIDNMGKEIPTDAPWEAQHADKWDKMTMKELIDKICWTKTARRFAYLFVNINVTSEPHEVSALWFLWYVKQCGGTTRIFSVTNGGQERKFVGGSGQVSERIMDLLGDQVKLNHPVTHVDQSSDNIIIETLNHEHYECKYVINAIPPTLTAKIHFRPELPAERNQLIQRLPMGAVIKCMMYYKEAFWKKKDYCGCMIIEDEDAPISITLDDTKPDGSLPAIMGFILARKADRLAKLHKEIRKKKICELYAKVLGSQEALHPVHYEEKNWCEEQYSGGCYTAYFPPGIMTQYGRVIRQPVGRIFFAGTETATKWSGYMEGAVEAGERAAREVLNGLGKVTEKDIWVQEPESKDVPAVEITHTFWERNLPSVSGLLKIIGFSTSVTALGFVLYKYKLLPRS

[2] = biological target: T1, Amine oxidase [flavin-containing] A; assay: Inhibition of human MAO-A expressed in BTI insect cells using p-tyramine as substrate after 60 mins
[3] = biological target: T2, Amine oxidase [flavin-containing] B (Homo sapiens, UniProt P27338); assay: Inhibition of human MAO-B expressed in BTI insect cells using p-tyramine as substrate after 60 mins; type: cell-based
T2 sequence (P27338 whole entry): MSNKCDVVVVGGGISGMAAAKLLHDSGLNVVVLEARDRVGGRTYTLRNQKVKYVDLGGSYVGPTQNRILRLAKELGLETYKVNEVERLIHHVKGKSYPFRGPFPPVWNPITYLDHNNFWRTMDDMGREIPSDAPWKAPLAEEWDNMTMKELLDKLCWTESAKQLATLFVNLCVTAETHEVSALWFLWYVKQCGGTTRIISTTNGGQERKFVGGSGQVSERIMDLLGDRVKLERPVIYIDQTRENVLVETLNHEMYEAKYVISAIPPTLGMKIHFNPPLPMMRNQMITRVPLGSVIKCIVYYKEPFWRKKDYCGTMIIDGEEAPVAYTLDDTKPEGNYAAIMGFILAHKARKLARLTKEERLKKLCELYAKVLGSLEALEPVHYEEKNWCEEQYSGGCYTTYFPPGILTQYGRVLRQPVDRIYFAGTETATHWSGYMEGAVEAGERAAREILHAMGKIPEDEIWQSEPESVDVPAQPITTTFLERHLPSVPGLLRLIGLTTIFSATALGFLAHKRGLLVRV

[4] = organism: Homo sapiens; assay: Selectivity index, ratio of Ki for human MAO-A to Ki for human MAO-B expressed in BTI insect cells
[5] = biological target: T1, Amine oxidase [flavin-containing] A; assay: Competitive inhibition of human MAO-A expressed in BTI insect cells using p-tyramine as substrate after 60 mins; settings: 1 h

Compound | inhibition (INH) [1] | Ki [2] [µM] | Ki [3] [µM] | Ratio Ki [4] | inhibition (INH) [5]
COc1cccc(NC(=S)N2N=C(c3ccccc3)CC2c2ccc(O)cc2)c1 (centres undefined) | Active | 0.35 | 355 | 0.000988 | Active
NC(=O)N1N=C(c2ccccc2)CC1c1ccncc1 (centres undefined) | Active | 7 | 4.79 | 1.46 | Active
Cc1ccc(C2CC(c3ccccc3)=NN2C(=N)N)cc1 (centres undefined) | Active | 0.4 | 4.11 | 0.099 | Active
COc1ccccc1NC(=S)N1N=C(c2ccccc2)CC1c1ccccc1O (centres undefined) | Active | 0.31 | 60 | 0.005 | Active
Cc1ccc(C2CC(c3ccccc3)=NN2C(N)=O)cc1 (centres undefined) | Active | 0.49 | 3.2 | 0.153 | Active
COc1ccc(NC(=S)N2N=C(c3ccccc3)CC2c2ccccc2O)cc1 (centres undefined) | Active | 0.17 | 60.2 | 0.001 | Active
C#CCN(C)[C@H](C)Cc1ccccc1 [SELEGILINE] | Active | – | – | – | Active
N=C(N)N1N=C(c2ccccc2)CC1c1ccc(Cl)cc1 (centres undefined) | Active | 0.15 | 4.22 | 0.035 | Active
N=C(N)N1N=C(c2ccccc2)CC1c1ccncc1 (centres undefined) | Active | 0.67 | 4.8 | 0.14 | Active
COc1ccc(NC(=S)N2N=C(c3ccccc3)CC2c2ccc(O)cc2)cc1 (centres undefined) | Active | 0.09 | 401 | 0.000226 | Active
Cc1cccc(NC(=S)N2N=C(c3ccccc3)CC2c2ccccc2O)c1 (centres undefined) | Active | 0.3 | 250 | 0.001 | Active
O=C(NCCN1CCOCC1)c1ccc(Cl)cc1 [MOCLOBEMIDE] | Active | – | – | – | Active
Cc1ccccc1NC(=S)N1N=C(c2ccccc2)CC1c1ccc(O)cc1 (centres undefined) | Active | 0.31 | 309 | 0.001 | Active
COc1ccc(C2CC(c3ccccc3)=NN2C(N)=O)cc1 (centres undefined) | Active | 0.98 | 1.88 | 0.521 | Active
NC(=S)N1N=C(c2ccccc2)CC1c1ccncc1 (centres undefined) | Active | 0.456 | 4 | 0.114 | Active
COc1ccccc1NC(=S)N1N=C(c2ccccc2)CC1c1ccc(O)cc1 (centres undefined) | Active | 2.15 | 2130 | 0.001 | Active
COc1cccc(NC(=S)N2N=C(c3ccccc3)CC2c2ccccc2O)c1 (centres undefined) | Active | 0.1 | 979 | 0.000102 | Active
Cc1ccc(NC(=S)N2N=C(c3ccccc3)CC2c2ccccc2O)cc1 (centres undefined) | Active | 0.29 | 69.9 | 0.004 | Active
NC(=O)N1N=C(c2ccccc2)CC1c1ccc(Cl)cc1 (centres undefined) | Active | 0.3 | 1.66 | 0.181 | Active
Cc1ccc(NC(=S)N2N=C(c3ccccc3)CC2c2ccc(O)cc2)cc1 (centres undefined) | Active | 0.36 | 300 | 0.001 | Active
Cc1ccccc1NC(=S)N1N=C(c2ccccc2)CC1c1ccccc1O (centres undefined) | Active | 0.25 | 22 | 0.001 | Active
Cc1cccc(NC(=S)N2N=C(c3ccccc3)CC2c2ccc(O)cc2)c1 (centres undefined) | Active | 0.13 | 256 | 0.000509 | Active
